Common to all, as to format: in vitro ADME
The nature of series [1]: In vitro metabolic stability in rat liver microsomes. As to conditions: for remaining at 1 h, 1 µM: liver microsomes, pH 7.4, rat liver microsomes, 60 min, read-out: percent remaining. The method, then: (§1) The phosphate buffer (pH 7.4, 100 mM) and (300 mM) were prepared in deionized water. NADP and IA were dissolved in phosphate buffer and MgCl2 solution and then added 20 μL IDH (18 units/mg protein) and mixed. NHPPC (1 mM) and positive control drug were prepared by dilution using DMSO and then the NHPPC and positive control drug working solution (50 μM) were obtained by dilution using methanol: H2O (1:1, v/v) mixture. Pooled human, rat and dog liver microsomes were added to phosphate buffer pH7.4 to a concentration 20 mg/mL. NHPPC was incubated with liver microsomes. The incubation solution of the final reaction conditions contained 50 mM potassium phosphate buffer (pH 7.4), 0.5 mg protein/mL microsomes, 3 mM MgCl2, 2 mM NADPH and 1 μM NHPPC or positive control drug in a final volume of 100 μL. In sample and positive control groups, NADPH was added into the incubation solutions. In the negative control group, water (the replacement of NADPH) was added into the incubation solutions. Samples were incubated aerobically in a shaking water bath at 37°C and the reaction was terminated by adding 300 μL of ice cold acetonitrile (contain 100 ng/mL IS) at different interval 0, 5, 10, 20, 30 and 60 min. While positive control and negative control were incubated aerobically in a shaking water bath at 37°C for 0 and 60 min, respectively. NHPPC and control concentrations were determined by LC-MS/MS at each time point (n = 3). Calculation of t1/2 and CLint was performed by using following equations, where K is the elimination rate constant (min^−1) and QH is hepatic blood flow (mL/min/kg). t1/2=0.693/KCLint,in vitro=VD×KVD=Volume of reaction mixture(mL)/mg of protein per reation.
(§2) Hepatic intrinsic clearance was estimated by using the scaling factors and calculated by using the following equation (Lave et al. [1997]). CLint,in vivo=CLint×mg microsomal protein per liver×g liver per kg body weight, Cint,H=CLint,in vivo×QH/CLint,in vivo+QH,EH=CLint,H/QH.

Series [2] in a line: Stability in plasma, 6 h incubation at 37°C (rat). As to conditions: Sprague-Dawley. How it is done:
The phosphate buffer (100 mM) and sodium hydroxide solution (1.0 M) were prepared in deionized water. […] PPB was determined by equilibrium dialysis method. An aliquot (150 μL) of NHPPC spiked plasma and phosphate buffer (pH 7.4) was added into the donor side and the receiver side of each designated well. The plate was covered with adhesive sealing film to prevent evaporation and placed in a water-bath shaker kept at 37°C for 6 h with a rate of 50 rpm. […] At the end of 6 h, aliquots were taken from each side of each well (n = 3) and kept in a −20°C freezer prior to analysis. The stability, device recovery and PPB were calculated using the following equations: Remaining at 6 h (%)=C6h/C0h×100%, Device recovery (%)=CDonor+CReceiver/C6h×100%, PPB (%)=CDonor−CReceiver/CDonor×100%.

Series [3] in a line: In vitro metabolic stability in dog liver microsomes. As to conditions: for remaining at 1 h, 1 µM: liver microsomes, pH 7.4, dog liver microsomes, 60 min, read-out: percent remaining. How it is done:
as §1, §2

The next series deals with T1, CYP2C9 (Homo sapiens, UniProt P11712).
T1 construct: tissue BD Gentest; host or cells: pooled human liver microsomes
T1 sequence (P11712 whole entry): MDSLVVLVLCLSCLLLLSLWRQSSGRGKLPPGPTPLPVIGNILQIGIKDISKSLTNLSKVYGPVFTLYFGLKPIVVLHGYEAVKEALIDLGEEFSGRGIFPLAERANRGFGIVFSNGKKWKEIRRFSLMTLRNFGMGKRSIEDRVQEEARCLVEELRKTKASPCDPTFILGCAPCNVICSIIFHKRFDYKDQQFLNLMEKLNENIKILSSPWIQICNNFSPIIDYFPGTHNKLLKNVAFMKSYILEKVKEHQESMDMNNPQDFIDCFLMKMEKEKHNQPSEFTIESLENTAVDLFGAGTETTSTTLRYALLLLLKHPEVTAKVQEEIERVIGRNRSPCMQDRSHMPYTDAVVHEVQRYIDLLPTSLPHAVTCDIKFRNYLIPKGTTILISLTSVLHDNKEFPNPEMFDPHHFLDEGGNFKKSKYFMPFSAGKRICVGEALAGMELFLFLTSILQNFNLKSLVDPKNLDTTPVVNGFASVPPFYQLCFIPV
Put plainly: CYP isozyme inhibition in human liver microsomes. To be noted: calculated from inhibition at 3 μM. How it is done: (§3) The stock solutions of the probe substrates phenacetin (20.0 mM), diclofenac (20.0 mM), S-mephenytoin (30 mM), dextromethorphan (10.0 mM), midazolam (10.00 mM) and testosterone (50.0 mM) were prepared using methanol, while α-Naphtoflavone (3.0 mM), sulfaphenazole (3.0 mM), N-3-benzylnirvanol (3.0 mM), quinidine (3.0 mM), ketoconazole (3.0 mM) and NHPPC (10.0 mM) were prepared using DMSO, and diluted with phosphate buffer (PB, 100 mM, pH 7.4) before added into the incubation system. The organic solvents in the final incubate were no more than 0.20%. The incubation medium was 100 mM phosphate buffered saline, and the final incubation volume was 200 μL containing 25 pmol/mL human liver microsomes CYP enzyme, probe substrate, 1 mM NADPH and NHPPC at 3.00 μM. The reactions were initiated after 5 min pre-incubation at 37°C and were terminated by the addition of 400 μL ice-cold acetonitrile. All incubations were conducted in triplicate, and the samples were stored at −80°C until analysis. Calculation of IC50 was performed by using following equations, where C is concentration of test compounds.

Another series deals with T2, CYP1A2 (Homo sapiens, UniProt P05177).
T2 construct: tissue BD Gentest; host or cells: pooled human liver microsomes
T2 sequence (P05177 1-516): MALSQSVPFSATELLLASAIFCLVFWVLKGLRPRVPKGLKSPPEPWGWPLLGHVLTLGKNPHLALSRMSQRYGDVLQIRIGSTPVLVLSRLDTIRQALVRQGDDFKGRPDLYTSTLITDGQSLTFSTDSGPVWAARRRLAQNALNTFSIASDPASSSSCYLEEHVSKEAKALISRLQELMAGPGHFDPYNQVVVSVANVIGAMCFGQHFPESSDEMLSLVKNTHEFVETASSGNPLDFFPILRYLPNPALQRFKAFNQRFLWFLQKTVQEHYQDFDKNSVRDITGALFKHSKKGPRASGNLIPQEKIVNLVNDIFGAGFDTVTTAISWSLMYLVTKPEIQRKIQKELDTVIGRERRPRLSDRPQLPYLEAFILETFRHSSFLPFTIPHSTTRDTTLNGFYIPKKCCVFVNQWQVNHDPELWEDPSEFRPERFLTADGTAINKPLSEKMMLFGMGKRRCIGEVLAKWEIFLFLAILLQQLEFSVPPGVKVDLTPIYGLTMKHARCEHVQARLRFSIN
Put plainly: CYP isozyme inhibition in human liver microsomes. To be noted: calculated from inhibition at 3 μM. How it is done:
as §3

The next series deals with T3, CYP2D6 (Homo sapiens, UniProt P10635).
T3 construct: tissue BD Gentest; host or cells: pooled human liver microsomes
T3 sequence (P10635 whole entry): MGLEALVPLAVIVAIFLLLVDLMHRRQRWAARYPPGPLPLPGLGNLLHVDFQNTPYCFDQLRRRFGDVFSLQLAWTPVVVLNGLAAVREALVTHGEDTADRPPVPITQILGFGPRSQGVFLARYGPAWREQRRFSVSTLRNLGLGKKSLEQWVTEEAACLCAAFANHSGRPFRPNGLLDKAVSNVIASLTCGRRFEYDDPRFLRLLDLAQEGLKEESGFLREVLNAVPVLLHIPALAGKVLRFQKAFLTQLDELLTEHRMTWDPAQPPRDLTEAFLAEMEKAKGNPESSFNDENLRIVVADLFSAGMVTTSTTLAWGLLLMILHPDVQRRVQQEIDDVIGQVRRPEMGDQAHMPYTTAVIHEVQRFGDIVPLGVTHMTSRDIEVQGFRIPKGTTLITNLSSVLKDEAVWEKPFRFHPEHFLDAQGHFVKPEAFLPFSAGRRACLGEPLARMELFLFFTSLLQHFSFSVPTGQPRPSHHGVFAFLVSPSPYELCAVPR
Put plainly: CYP isozyme inhibition in human liver microsomes. As to conditions: calculated from inhibition at 3 μM. How it is done: as §3

A further series has as its target T4, CYP3A4 (Homo sapiens, UniProt P08684).
T4 construct: tissue BD Gentest; host or cells: pooled human liver microsomes
Put plainly: CYP isozyme inhibition in human liver microsomes. To be noted: calculated from inhibition at 3 μM. How it is done: as §3

For the next series, the target named is T5, CYP2C19 (Homo sapiens, UniProt P33261).
T5 construct: tissue BD Gentest; host or cells: pooled human liver microsomes
T5 sequence (P33261 whole entry): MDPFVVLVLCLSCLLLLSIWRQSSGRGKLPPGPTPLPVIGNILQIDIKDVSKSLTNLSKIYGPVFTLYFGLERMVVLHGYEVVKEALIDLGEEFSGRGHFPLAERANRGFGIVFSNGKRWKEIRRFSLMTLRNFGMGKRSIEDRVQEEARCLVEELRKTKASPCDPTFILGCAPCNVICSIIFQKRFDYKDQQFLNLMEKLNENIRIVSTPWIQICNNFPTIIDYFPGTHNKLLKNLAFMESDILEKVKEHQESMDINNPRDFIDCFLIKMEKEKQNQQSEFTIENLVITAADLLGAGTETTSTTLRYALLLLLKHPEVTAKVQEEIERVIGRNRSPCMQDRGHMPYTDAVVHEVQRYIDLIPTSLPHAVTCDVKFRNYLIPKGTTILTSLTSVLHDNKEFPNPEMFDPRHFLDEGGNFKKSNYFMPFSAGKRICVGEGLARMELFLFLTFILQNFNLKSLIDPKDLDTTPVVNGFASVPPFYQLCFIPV
Put plainly: CYP isozyme inhibition in human liver microsomes. As to conditions: calculated from inhibition at 3 μM. The method, then: as §3

T4 sequence (P08684 whole entry): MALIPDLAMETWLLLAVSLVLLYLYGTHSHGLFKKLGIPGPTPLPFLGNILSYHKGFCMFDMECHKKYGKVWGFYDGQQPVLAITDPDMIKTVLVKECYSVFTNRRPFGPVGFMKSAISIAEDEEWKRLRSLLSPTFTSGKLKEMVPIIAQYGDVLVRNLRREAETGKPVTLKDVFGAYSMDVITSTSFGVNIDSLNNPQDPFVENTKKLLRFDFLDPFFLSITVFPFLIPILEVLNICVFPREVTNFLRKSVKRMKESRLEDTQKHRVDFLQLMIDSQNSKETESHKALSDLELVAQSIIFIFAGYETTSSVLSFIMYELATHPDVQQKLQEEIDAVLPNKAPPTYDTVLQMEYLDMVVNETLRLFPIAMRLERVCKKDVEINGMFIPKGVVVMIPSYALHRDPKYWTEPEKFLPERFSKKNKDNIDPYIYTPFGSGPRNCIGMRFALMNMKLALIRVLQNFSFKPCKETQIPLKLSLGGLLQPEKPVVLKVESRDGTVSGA

Turning to `COc1ccc(CNc2nc(N3CCC[C@H]3CO)ncc2C(=O)NCc2ccccn2)cc1Cl` [NHPPC, N-(2-pyridylmethyl)-2-hydroxiymethyl-1-pyrrolidinyl-4-(3-chloro-4-methoxy-benzylamino)-5-pyrimidine-carboxamide], the half-life at 1 µM is 42.5 min in series [1] (pH 7.4, rat liver microsomes) and 8.2 min in series [3] (liver microsomes (pooled), pH 7.4, dog liver microsomes). Further, the microsomal CLint at 1 µM in series [1] (pH 7.4, rat liver microsomes, read-out: CLint, ivtro) was 23.3 µL/min/mg; in series [3] (liver microsomes (pooled), pH 7.4, dog liver microsomes, read-out: CLint, ivtro), 120 µL/min/mg. Further, the k el at 1 µM in series [1] (pH 7.4, rat liver microsomes, read-out: Ke (converted)) was 0.000272 s⁻¹; in series [3] (pH 7.4, dog liver microsomes, read-out: Ke (converted)), 0.0014 s⁻¹. The fraction remaining at 1 h, 1 µM came out at 42.8% in series [1] (rat, in the presence of NADPH, 1 μM); 102% in series [1] (rat, without NADPH regenerating system); 0.8% in series [3] (dog, in the presence of NADPH, 1 μM); 98.4% in series [3] (dog, without NADPH regenerating system). Further, the ranking for clearance entry in series [1] (rat, ranking criteria of Houston 1994, Kerns and Di 2008) is on record as “middle clearance”. Moreover, the CLH in series [1] (rat, scaled from liver microsomes) is given as 27.5 mL/min/kg; in series [3] (dog, scaled from liver microsomes), 25.3 mL/min/kg. Besides, in series [2] (0.2 µM, n = 3, read-out: Mean drug remaining %), the amount remaining at 6 h, 0.2 µM turned out to be 100 ± 1.93%. In addition, the fraction remaining at 6 h, 1 µM in series [2] (1 µM, n = 3, read-out: Mean drug remaining %) stood at 102 ± 1.26%. In addition, the fraction remaining at 6 h in series [2] (mean of 0.2 and 1 µM, read-out: Mean drug remaining %) was found to be 101 ± 1.01%. Also, the IC50 was 21.9 µM at CYP2C9; over 100 µM at CYP1A2; over 100 µM at CYP2D6; over 100 µM on CYP3A4 (CYP3A4 (midazolam based)); over 100 µM on CYP3A4 (CYP3A4 (testosterone based)); over 100 µM on CYP2C19.

The values above are taken from paper PMC6567057, “Pharmacokinetic, metabolic stability, plasma protein binding and CYP450s inhibition/induction assessment studies of N-(2-pyridylmethyl)-2-hydroxiymethyl-1-pyrrolidinyl-4-(3-chloro-4-methoxy-benzylamino)-5-pyrimidine-carboxamide as potential type 5 phosphodiesterase inhibitors” (Animal Cells and Systems, 2019).
